# In US20250346585A1 (Alexion Pharmaceuticals, Inc., priority 2022, published 2025):
# pIC50: −log10 of the molar value.
# Molecular target: Human complement C1s enzyme (Homo sapiens (Human), UniProt P09871)
# Experiment: Human C1s enzyme assay
# Assay type: biochemical
# Details: Human C1s enzyme assay of Example 3; read-out: IC50 (Stars)
# Outline: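 Purified serum-derived human C1s (1.16 nM final) preincubated 5 min at room temperature with compound in 50 mM Tris, 1 M NaCl, pH 7.5. Z-L-Lys-SBzl thioester substrate and DTNB added (100 μM each, final); A405 read every 30 s for 30 min. IC50 from nonlinear regression of reaction rates against compound concentration.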
# Sequence of Human complement C1s enzyme (P09871 438-688 limits assumed): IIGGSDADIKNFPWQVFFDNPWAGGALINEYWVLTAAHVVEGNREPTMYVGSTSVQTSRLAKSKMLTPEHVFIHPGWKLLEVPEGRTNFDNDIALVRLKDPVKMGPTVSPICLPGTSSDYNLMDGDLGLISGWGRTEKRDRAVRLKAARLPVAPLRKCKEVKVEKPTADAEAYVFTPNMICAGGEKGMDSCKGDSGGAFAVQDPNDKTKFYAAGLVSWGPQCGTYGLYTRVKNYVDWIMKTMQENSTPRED
# Sequence of Human complement C1s enzyme (P09871 16-437 partner limits assumed): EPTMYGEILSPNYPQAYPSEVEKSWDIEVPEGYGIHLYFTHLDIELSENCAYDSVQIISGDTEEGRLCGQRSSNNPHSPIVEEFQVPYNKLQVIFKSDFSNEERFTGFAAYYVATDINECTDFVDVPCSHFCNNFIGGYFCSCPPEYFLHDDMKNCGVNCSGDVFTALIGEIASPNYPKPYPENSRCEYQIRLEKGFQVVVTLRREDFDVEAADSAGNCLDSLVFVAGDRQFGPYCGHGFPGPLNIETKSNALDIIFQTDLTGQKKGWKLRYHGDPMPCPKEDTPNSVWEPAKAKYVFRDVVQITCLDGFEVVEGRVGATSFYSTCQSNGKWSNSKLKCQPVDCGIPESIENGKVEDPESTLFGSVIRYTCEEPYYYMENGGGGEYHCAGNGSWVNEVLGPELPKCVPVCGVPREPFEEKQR
row,Compound,pIC50
1,"COC[C@@]1(F)C[C@@H](C(=O)NCc2cc(C(=N)N)cs2)N(C(=O)CNC(=O)c2ccc3c(c2)-c2ccccc2C3(F)F)C1 [Compound 58, (2S,4R)—N-((4-carbamimidoylthiophen-2-yl)methyl)-1-((9,9-difluoro-9H-fluorene-3-carbonyl)glycyl)-4-fluoro-4-(methoxymethyl)pyrrolidine-2-carboxamide]",> 7.00
2,"C[C@@H](NC(=O)[C@@H]1CC2(CN1C(=O)CNC(=O)c1ccc(-c3ccc(F)cc3)c(F)c1)OCCO2)c1cc(C(=N)N)cs1 [Compound 175, (S)—N—((R)-1-(4-carbamimidoylthiophen-2-yl)ethyl)-7-((2,4′-difluoro-[1,1′-biphenyl]-4-carbonyl)glycyl)-1,4-dioxa-7-azaspiro[4.4]nonane-8-carboxamide]",> 7.00
3,"N=C(N)c1csc(CNC(=O)[C@@H]2CC3(CN2C(=O)CNC(=O)c2ccc(Oc4ccccc4)cc2F)OCCO3)c1 [Compound 74, (S)—N-((4-carbamimidoylthiophen-2-yl)methyl)-7-((2-fluoro-4-phenoxybenzoyl)glycyl)-1,4-dioxa-7-azaspiro[4.4]nonane-8-carboxamide]",> 7.00

# Same assay, conditions: Human complement C1s enzyme 1.16 nM, substrate Z-L-Lys-SBzl 100 μM, assay of Example 3; read-out: IC50 (Stars)
row,Compound,pIC50
1,"COC[C@@]1(F)C[C@@H](C(=O)N[C@H](C)c2cc(C(=N)N)cs2)N(C(=O)CNC(=O)c2ccc3sc4ccccc4c3c2)C1 [Compound 394, (2S,4R)—N—((R)-1-(4-carbamimidoylthiophen-2-yl)ethyl)-1-((dibenzo[b,d]thiophene-2-carbonyl)glycyl)-4-fluoro-4-(methoxymethyl)pyrrolidine-2-carboxamide]",> 7.00
2,"N=C(N)c1csc([C@@H](NC(=O)[C@@H]2CC3(CN2C(=O)CNC(=O)c2ccc4c(c2)-c2ccccc2C4(F)F)OCCO3)C(F)(F)F)c1 (relative stereo) [Compound 275, (S)—N—((S*)-1-(4-carbamimidoylthiophen-2-yl)-2,2,2-trifluoroethyl)-7-((9,9-difluoro-9H-fluorene-3-carbonyl)glycyl)-1,4-dioxa-7-azaspiro[4.4]nonane-8-carboxamide]",> 7.00
3,"N=C(N)c1csc(CNC(=O)[C@@H]2CC3(CN2C(=O)CNC(=O)c2ccc(-c4cnn(Cc5ccccc5)c4)cc2)OCCO3)c1 [Compound 198, (S)-7-((4-(1-benzyl-1H-pyrazol-4-yl)benzoyl)glycyl)-N-((4-carbamimidoylthiophen-2-yl)methyl)-1,4-dioxa-7-azaspiro[4.4]nonane-8-carboxamide]",> 7.00
4,"C[C@@H](NC(=O)[C@@H]1CC2(CN1C(=O)CNC(=O)c1ccc3c(c1)-c1cc(F)ccc1C3(F)F)OCCO2)c1cc(C(=N)N)cs1 [Compound 225, (S)—N—((R)-1-(4-carbamimidoylthiophen-2-yl)ethyl)-7-((6,9,9-trifluoro-9H-fluorene-3-carbonyl)glycyl)-1,4-dioxa-7-azaspiro[4.4]nonane-8-carboxamide]",> 7.00
5,"C[C@@H](NC(=O)[C@@H]1C[C@@H](S(C)(=O)=O)CN1C(=O)CNC(=O)c1ccc2oc3ccccc3c2c1)c1cc(C(=N)N)cs1 [Compound 220, (2S,4R)—N—((R)-1-(4-carbamimidoylthiophen-2-yl)ethyl)-1-((dibenzo[b,d]furan-2-carbonyl)glycyl)-4-(methylsulfonyl)pyrrolidine-2-carboxamide]",> 7.00
6,"N=C(N)c1csc(CNC(=O)[C@@H]2CC3(CN2C(=O)CN2CCc4cc(-c5ccc(F)cc5F)ccc4C2=O)OCCO3)c1 [Compound 245, (S)—N-((4-carbamimidoylthiophen-2-yl)methyl)-7-(2-(6-(2,4-difluorophenyl)-1-oxo-3,4-dihydroisoquinolin-2(1H)-yl)acetyl)-1,4-dioxa-7-azaspiro[4.4]nonane-8-carboxamide]",> 7.00

# Same assay, conditions: Human complement C1s enzyme 1.16 nM, substrate Z-L-Lys-SBzl; assay of Example 3; read-out: IC50 (Stars)
row,Compound,pIC50
1,"CS(=O)(=O)[C@@H]1C[C@@H](C(=O)N[C@H](CO)c2cc(C(=N)N)cs2)N(C(=O)CNC(=O)c2cccc(-c3ccc(F)cc3)c2)C1 [Compound 402, (2S,4R)—N—((R)-1-(4-carbamimidoylthiophen-2-yl)-2-hydroxyethyl)-1-((4′-fluoro-[1,1′-biphenyl]-3-carbonyl)glycyl)-4-(methylsulfonyl)pyrrolidine-2-carboxamide]",> 7.00
